Results published in patent US20090221056A1, “Pathogen-Detecting Cell Preservation Systems” (priority 2005, published 2009).
“Also recorded” adds a separate entry of the source. The star is where a group is joined. Cbz = O=C(OCc1ccccc1)*; CH2F = FC*

What was measured:
[1] = system: CANARY cells; assay: Toxicity of chemical additives to CANARY cells; conditions: at 50 μM
[2] = system: CANARY B cells; assay: Viability of CANARY cells after storage with chemical additives; format: cell-based; conditions: storage at room temperature (1-3 weeks), compared to cells without additive
[3] = system: CANARY B cells (expressing a receptor specific for Yersinia pestis); format: cell-based

Substance | toxicity of additive [1] | viability of cells stored at room temperature [2] | viability of cells stored at room temperature ([2]; listed as Tunicamycin) | activity (antigen detection) of cells stored at room temperature [3] | beneficial effect on stored cells (viability and/or activity) [3] | benefit of treatment to stored cells [3]
Cbz-LEHD-CH2F | toxic |  |  |  |  | 
Cbz-WEHD-CH2F | toxic |  |  |  |  | 
tunicamycin |  | improved both viability and activity | increases both cell viability and activity | increases both cell viability and activity; also recorded: retained detection sensitivity for Yersinia pestis; also recorded: improved both viability and activity | beneficial effects | detrimental
